Patent US20080228069A1, “Novel Differential Imaging Method” (MEDIPHYSICS, INC., priority 2003, published 2008)

What was measured:
[1] = tested on: myocardial uptake of ^123I mIBG; assay: ^123I mIBG imaging with and without amitryptaline; type: in vivo, human
Experimental: 4 patients with movement disorders and aged between 66 and 75 were selected for this study. Neurological examination raised the differential diagnosis between essential tremor and Parkinson's disease. Prior to the study, none of the patients was taking any medication known to interfere with mIBG uptake. In all patients two ^123I mIBG scans were performed, one of which was performed after administration of a single oral dose of 25 mg amitryptaline one hour prior to ^123I mIBG administration. The imaging protocol was carried out for both scans as described in the following paragraphs.
The patients were treated with 200-500 mg of potassium perchlorate 30 minutes before injection of ^123I mIBG. […]
Anterior planar images of the thorax were obtained at 15 minutes and at 4 hours after ^123I mIBG injection with the subject in a supine position. The gamma camera (GE Millenium) was equipped with a low-energy, parallel-hole, general purpose collimator, and a 20% energy window on 159 KeV if ^123I is used.
SPECT was performed with collection of 32 projections of 30-60 seconds each, acquired over 180° orbit, with 3°-6° angle interval in a 64×64 matrix starting in the 45° right anterior oblique projection and finishing in the 45° left posterior oblique projection.
Studies were reconstructed using a Butterworth filtered backprojection technique. Three tomographic images were obtained from the SPECT study, i.e. vertical long axis slices, short axis slices, and horizontal long axis slices. Bull's eye polar map was generated from the apical to the basal short axis slices to show relative tracer distribution in the myocardium. Reconstruction was performed without attenuation and scatter correction.
The parameters used for quantification of myocardial ^123I-mIBG activity were heart to mediastinum ratio (HMR) and myocardial washout rate (WR). […] The WR is calculated by dividing the product of […] by myocardial counts at 15 minutes and multiplying by 100. […]

[2] = tested on: SK—N—SH human neuroblastoma cells; conditions: over activity range; cited from earlier work
[3] = cited from earlier work

Row | Structure (SMILES) | myocardial uptake of ^123I mIBG when amitryptaline was administered before ^123I mIBG ([1]; FIG. 3, two of the four subjects, single oral dose of 25 mg amitryptaline one hour prior to ^123I mIBG) | difference in the myocardial uptake of ^123I mIBG following administration of amitryptaline ([1]; FIG. 4, the other two subjects, single oral dose of 25 mg amitryptaline one hour prior to ^123I mIBG) | uptake of ^123I mIBG in the stress image ([1]; half of the patients imaged (4 patients), adrenergic interfering agent amitryptaline) | percent binding to SK—N—SH human neuroblastoma cells [2] | uptake in mouse heart and adrenals [3]
1 | CN(C)CCC=C1c2ccccc2CCc2ccccc21 [amitryptaline] | marked decrease | no notable difference | Reduced uptake |  | 
2 | NC(N)=NCc1ccc(F)c(I)c1 [^18F-FIBG] |  |  |  | remained constant over a 3-log activity range | Specific and high uptake
